Assay results published in patent US20040186081A1, “Naaladase inhibitors for treating opioid tolerance” (Guilford Pharmaceuticals Inc., priority 2003, published 2004).

Target: NAALADase (Homo sapiens, UniProt Q04609)
Test: In vitro inhibition of NAALADase activity
Format: biochemical
Settings: not given

Chain of NAALADase (Q04609 whole entry): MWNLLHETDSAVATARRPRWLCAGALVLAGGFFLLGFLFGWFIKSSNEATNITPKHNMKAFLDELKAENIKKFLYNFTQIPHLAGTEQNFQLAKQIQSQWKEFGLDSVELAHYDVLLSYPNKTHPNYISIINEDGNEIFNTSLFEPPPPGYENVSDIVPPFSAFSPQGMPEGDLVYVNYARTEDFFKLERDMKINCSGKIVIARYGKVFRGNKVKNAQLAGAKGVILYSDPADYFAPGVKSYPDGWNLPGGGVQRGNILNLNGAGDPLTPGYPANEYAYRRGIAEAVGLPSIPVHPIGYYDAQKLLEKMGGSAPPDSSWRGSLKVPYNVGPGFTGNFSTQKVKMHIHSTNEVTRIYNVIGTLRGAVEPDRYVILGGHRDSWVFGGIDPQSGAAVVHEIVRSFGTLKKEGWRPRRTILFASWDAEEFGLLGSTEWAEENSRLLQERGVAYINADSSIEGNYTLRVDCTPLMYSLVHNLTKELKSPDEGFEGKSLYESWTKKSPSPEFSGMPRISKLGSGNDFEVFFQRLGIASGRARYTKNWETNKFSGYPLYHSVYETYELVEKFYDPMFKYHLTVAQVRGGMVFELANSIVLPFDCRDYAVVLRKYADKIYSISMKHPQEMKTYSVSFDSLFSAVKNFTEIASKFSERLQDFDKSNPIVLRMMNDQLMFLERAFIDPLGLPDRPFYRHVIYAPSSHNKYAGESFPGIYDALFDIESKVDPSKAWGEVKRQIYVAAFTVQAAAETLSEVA

First: O=C(O)c1ccc(CCS)c(C(=O)O)c1 [4-(2-mercaptoethyl)-1,3-benzenedicarboxylic acid]
Second: O=C(O)c1cc(CCS)cc(C(=O)O)c1 [5-(2-mercaptoethyl)-1,3-benzenedicarboxylic acid]
The Ki of the first is 44-fold lower: 116 nM for the first, 5100 nM for the second.

First: O=C(O)c1ccc(OCCCSSCCCOc2ccc(C(=O)O)cc2C(=O)O)c(C(=O)O)c1 [4-[3-[[3-(2,4-dicarboxyphenoxy)-propyl]-dithio]propoxy]-1,3-benzenedicarboxylic acid]
Second: O=C(O)c1ccc(C(=O)c2ccc(Oc3ccc(C(=O)O)c(C(=O)O)c3)cc2)c(C(=O)O)c1 [4-[4-(2,4-dicarboxybenzoyl)phenoxy]-1,2-benzenedicarboxylic acid]
The Ki of the first is 3.2-fold higher: 3750 nM for the first, 1170 nM for the second.

Compared with `O=C(O)c1ccc(Sc2ccccc2C(=O)O)c(C(=O)O)c1` [4-[(2-carboxyphenyl)thio]-1,3-benzenedicarboxylic acid], `O=C(O)CNc1cc(C(=O)O)cc(C(=O)O)c1` [5-[(carboxymethyl)amino]-1,3-benzenedicarboxylic acid] is 25-fold higher in Ki: 3980 nM for the first, 100000 nM for the second. The first binds more tightly here.

Compared with `O=C(O)c1cc(OCCS)cc(C(=O)O)c1` [5-(2-mercaptoethoxy)-1,3-benzenedicarboxylic acid], `O=C(O)c1cc(OCCCS)cc(C(=O)O)c1` [5-(3-mercaptopropoxy)-1,3-benzenedicarboxylic acid] is 4.4-fold lower in Ki: 14500 nM for the first, 3300 nM for the second. The second binds more tightly here.

Compared with `O=C(Cc1cc(C(=O)O)cc(C(=O)O)c1)NO` [5-[2-(hydroxyamino)-2-oxoethyl]-1,3-benzenedicarboxylic acid], `O=C(O)c1cc(C(=O)O)cc(C(=O)NO)c1` [5-[(hydroxyamino)-carbonyl]-1,3-benzenedicarboxylic acid] is 12-fold lower in Ki: 12000 nM for the first, 1000 nM for the second. The second binds more tightly here.

With `O=C(O)c1cc(CNCc2ccco2)cc(C(=O)O)c1` [5-[[(2-furanylmethyl)amino]methyl]-1,3-benzenedicarboxylic acid] the Ki was 50000 nM.

Same assay, conditions: read-out: IC50

Compared with `O=C(O)CNC(=O)c1cccc(CC(CCCS)C(=O)O)c1` (stereo not drawn) [3-[[(carboxymethyl)amino]carbonyl]-alpha-(3-mercaptopropyl)-benzenepropanoic acid], `O=C(O)c1cccc(CC(CCCS)C(=O)O)c1` (stereo not drawn) [3-carboxy-alpha-(3-mercaptopropyl)-benzenepropanoic acid] is 17-fold lower in IC50: 286 nM for the first, 17 nM for the second. The second is the more potent here.

`O=C(O)c1ccc(CC(CCCS)C(=O)O)cc1Br` (stereo not drawn) [3-bromo-4-carboxy-alpha-(3-mercaptopropyl)-benzenepropanoic acid] and `O=C(O)c1cc(CC(CCCS)C(=O)O)ccc1Cl` (stereo not drawn) [3-carboxy-4-chloro-alpha-(3-mercaptopropyl)-benzenepropanoic acid] are within 1.5-fold of each other in IC50: 146 nM for the first, 175 nM for the second.

First: O=C(O)c1cc(Br)cc(CC(CCCS)C(=O)O)c1 (stereo not drawn) [3-bromo-5-carboxy-alpha-(3-mercaptopropyl)-benzenepropanoic acid]
Second: COc1cc(CC(CCCS)C(=O)O)cc(C(=O)O)c1 (stereo not drawn) [3-carboxy-alpha-(3-mercaptopropyl)-5-methoxy-benzenepropanoic acid]
The IC50 of the first is 5.2-fold lower: 2.5 nM for the first, 13 nM for the second. The first is the more potent here.

Going from `O=C(O)c1cccc(CC(CCCS)C(=O)O)c1Cl` (stereo not drawn) [3-carboxy-2-chloro-alpha-(3-mercaptopropyl)-benzenepropanoic acid] to `O=C(O)c1cc(CC(CCCS)C(=O)O)ccc1F` (stereo not drawn) [3-carboxy-4-fluoro-alpha-(3-mercaptopropyl)-benzenepropanoic acid], the IC50 falls from 1200 nM to 12 nM (100-fold). The second is the more potent here.

Compared with `CC(S)CCC(Cc1cc(C(=O)O)cc(C(C)(C)C)c1)C(=O)O` (stereo not drawn) [3-carboxy-5-(1,1-dimethylethyl)-alpha-(3-mercaptobutyl)-benzenepropanoic acid], `CC(C)(C)c1cc(CC(CCCS)C(=O)O)cc(C(=O)O)c1` (stereo not drawn) [3-carboxy-5-(1,1-dimethylethyl)-alpha-(3-mercaptopropyl)-benzenepropanoic acid] is 20-fold lower in IC50: 1 nM for the first, 0.05 nM for the second. The second is the more potent here.

Compared with `CC(S)CCC(Cc1cccc(C(=O)O)c1)C(=O)O` (stereo not drawn) [3-carboxy-alpha-(3-mercaptobutyl)-benzenepropanoic acid], `CN(O)C(=O)CSCCCC(Cc1cccc(C(=O)O)c1)C(=O)O` (stereo not drawn) [3-{2-Carboxy-5-[(hydroxy-methyl-carbamoyl)-methylsulfanyl]-pentyl}-benzoic acid] is 500-fold higher in IC50: 30 nM for the first, 14900 nM for the second. The first is the more potent here.

`O=C(O)c1cc(CC(CCCS)C(=O)O)cc([N+](=O)[O-])c1` (stereo not drawn) [3-carboxy-alpha-(3-mercaptopropyl)-5-nitro-benzenepropanoic acid] and `O=C(O)c1cc(CC(CCCS)C(=O)O)cc(C(=O)O)c1` (stereo not drawn) [5-(2-carboxy-5-mercaptopentyl)-1,3-benzenedicarboxylic acid] are within 1.5-fold of each other in IC50: 3 nM for the first, 2.55 nM for the second.

First: O=C(O)c1cc(CC(CCCS)C(=O)O)cc(Oc2ccccc2)c1 (stereo not drawn) [3-carboxy-alpha-(3-mercaptopropyl)-5-phenoxy-benzenepropanoic acid]
Second: O=C(O)c1cc(CC(CCCS)C(=O)O)ccc1-c1ccccc1 (stereo not drawn) [4-(2-carboxy-5-mercaptopentyl)-[1,1′-biphenyl]-2-carboxylic acid]
The IC50 of the first is 3.6-fold lower: 5 nM for the first, 18 nM for the second.

First: COC(=O)c1cc(CC(C(=O)O)C(=O)NO)cc(C(C)(C)C)c1 (stereo not drawn) [3-tert-Butyl-5-(2-carboxy-2-hydroxycarbamoyl-ethyl)-benzoic acid methyl ester]
Second: CC(C)(C)c1cc(CC(C(=O)O)C(=O)NO)cc(C(=O)O)c1 (stereo not drawn) [3-tert-Butyl-5-(2-carboxy-2-hydroxycarbamoyl-ethyl)-benzoic acid]
The IC50 of the first is 3.2-fold higher: 38600 nM for the first, 11900 nM for the second. The second is the more potent here.

First: CC(C)(C)c1cc(CC(CC(=O)NO)C(=O)O)cc(C(=O)O)c1 (stereo not drawn) [3-tert-Butyl-5-(2-carboxy-3-hydroxycarbamoyl-propyl)-benzoic acid]
Second: CC(C)(C)c1cc(CC(CCC(=O)NO)C(=O)O)cc(C(=O)O)c1 (stereo not drawn) [3-tert-Butyl-5-(2-carboxy-4-hydroxycarbamoyl-butyl)-benzoic acid]
The IC50 of the first is 1500-fold higher: 296 nM for the first, 0.2 nM for the second.

Going from `CC(C)(C)c1cc(CC(CCSCC(=O)NO)C(=O)O)cc(C(=O)O)c1` (stereo not drawn) [3-tert-Butyl-5-(2-carboxy-4-hydroxycarbamoylmethyl-sulfanylbutyl)-benzoic acid] to `CCC(SCCC(Cc1cc(C(=O)O)cc(C(C)(C)C)c1)C(=O)O)C(=O)NO` (stereo not drawn) [3-tert-Butyl-5-[2-carboxy-4-(1-hydroxycarbamoyl-propylsulfanyl)-butyl]-benzoic acid], the IC50 rises from 1060 nM to 16000 nM (15-fold).

Going from `O=C(CSCCCC(Cc1cccc(-c2cccc(C(=O)O)c2)c1)C(=O)O)NO` (stereo not drawn) [3′-(2-Carboxy-5-hydroxycarbamoylmethylsulfanyl-pentyl)-biphenyl-3-carboxylic acid] to `O=C(CSCCCC(Cc1cc(C(=O)O)cc(-c2ccccc2)c1)C(=O)O)NO` (stereo not drawn) [5-(2-Carboxy-5-hydroxycarbamoylmethyl-sulfanylpentyl)-biphenyl-3-carboxylic acid], the IC50 falls from 23500 nM to 1690 nM (14-fold). The second is the more potent here.

Compared with `O=C(O)c1ccccc1-c1cccc(CC(CCCS)C(=O)O)c1` (stereo not drawn) [3′-(2-carboxy-5-mercaptopentyl)-[1,1′-biphenyl]-2-carboxylic acid], `O=C(O)c1cccc(-c2cccc(CC(CCCS)C(=O)O)c2)c1` (stereo not drawn) [3′-(2-carboxy-5-mercaptopentyl)-[1,1′-biphenyl]-3-carboxylic acid] is 100-fold lower in IC50: 184 nM for the first, 1.83 nM for the second.

First: O=C(O)Cc1ccc(OC(CCCS)C(=O)O)cc1 (stereo not drawn) [4-(1-carboxy-4-mercaptobutoxy)-benzeneacetic acid]
Second: O=C(O)c1ccc(OC(CCCS)C(=O)O)cc1 (stereo not drawn) [4-(1-carboxy-4-mercaptobutoxy)-benzoic acid]
The IC50 of the first is 2.3-fold lower: 82 nM for the first, 192 nM for the second.

Going from `O=C(O)c1ccccc1Oc1ccc(CC(CCCS)C(=O)O)cc1` (stereo not drawn) [4-(2-carboxyphenoxy)-alpha-(3-mercaptopropyl)-benzenepropanoic acid] to `O=C(O)c1ccc(CC(CCCS)C(=O)O)c2ccccc12` (stereo not drawn) [4-carboxy-alpha-(3-mercaptopropyl)-1-naphthalenepropanoic acid], the IC50 falls from 3590 nM to 316 nM (11-fold). The second is the more potent here.

Going from `N#Cc1ccccc1-c1ccc(CC(CCCS)C(=O)O)cc1` (stereo not drawn) [4-(2-cyanophenyl)-alpha-(3-mercaptopropyl)-benzenepropanoic acid] to `O=C(O)C(CCCS)Cc1ccc(O)cc1` (stereo not drawn) [4-hydroxy-alpha-(3-mercaptopropyl)-benzenepropanoic acid], the IC50 rises from 316 nM to 2140 nM (6.8-fold).

Going from `O=C(CCCSCc1ccc(-c2cccc(C(=O)O)c2)c(C(=O)O)c1)NO` [4-(3-Hydroxycarbamoyl-propylsulfanylmethyl)-biphenyl-2,3′-dicarboxylic acid] to `O=C(O)c1cccc(-c2ccc(CS)cc2C(=O)O)c1` [4-(mercaptomethyl)-[1,1′-biphenyl]-2,3′-dicarboxylic acid], the IC50 falls from 10800 nM to 76 nM (140-fold).

First: N#Cc1ccc(COc2ccc(C(=O)NO)cc2)cc1 [4-(4-Cyano-benzyloxy)-N-hydroxy-benzamide]
Second: O=C(O)c1ccc(COc2ccc(CCS)c(C(=O)O)c2)cc1 [5-[(4-carboxyphenyl)methoxy]-2-(2-mercaptoethyl)-benzoic acid]
The IC50 of the first is 200-fold higher: 14200 nM for the first, 71.5 nM for the second.

Compared with `O=C(NO)c1ccc(Oc2ccc(F)cc2)c([N+](=O)[O-])c1` [4-(4-Fluoro-phenoxy)-N-hydroxy-3-nitro-benzamide], `O=C(O)c1cccc(COc2ccc(CCS)c(C(=O)O)c2)c1` [5-[(3-carboxyphenyl)methoxy]-2-(2-mercaptoethyl)-benzoic acid] is lower in IC50: at least 100000 nM for the first, 84.5 nM for the second. The second is the more potent here.

Going from `CC(=O)Nc1ccc(CC(CCCS)C(=O)O)cc1` (stereo not drawn) [4-(acetylamino)-alpha-(3-mercaptopropyl)-benzenepropanoic acid] to `O=C(O)c1ccc(CC(CCCS)C(=O)O)cc1` (stereo not drawn) [4-carboxy-alpha-(3-mercaptopropyl)-benzenepropanoic acid], the IC50 falls from 2200 nM to 59 nM (37-fold).

`O=C(O)Cc1ccc(CC(CCCS)C(=O)O)cc1` (stereo not drawn) [4-(carboxymethyl)-alpha-(3-mercaptopropyl)-benzenepropanoic acid] and `O=C(O)c1c(F)c(F)c(CC(CCCS)C(=O)O)c(F)c1F` (stereo not drawn) [4-carboxy-2,3,5,6-tetrafluoro-alpha-(3-mercaptopropyl)-benzenepropanoic acid] are within 1.5-fold of each other in IC50: 809 nM for the first, 660 nM for the second.

First: O=C(O)c1ccc(Br)c(CS)c1 [4-bromo-3-(mercaptomethyl)-benzoic acid]
Second: O=C(O)c1cc(CS)ccc1OCCc1ccccc1 [5-(mercaptomethyl)-2-(2-phenylethoxy)-benzoic acid]
The IC50 of the first is 17-fold higher: 3200 nM for the first, 188 nM for the second.

Going from `CCOC(=O)c1cc(C(=O)O)cc(C(=O)NO)c1` [5-Hydroxycarbamoyl-isophthalic acid monoethyl ester] to `O=C(COc1cc(C(=O)O)cc(C(=O)O)c1)NO` [5-Hydroxycarbamoylmethoxy-isophthalic acid], the IC50 falls from 29000 nM to 14800 nM (2-fold). The second is the more potent here.
